Measurements as given in patent EP0447703A1, “Hetero polycyclic biocidal compounds, their synthesis and intermediates therefor,formulations containing them and their use in medicine” (THE WELLCOME FOUNDATION LIMITED, priority 1990, dated 1991).
Counter-ions that a name gives are not always drawn.

Key:
[1] = LD20 determined in the P388/0 test; type: in vivo
Description: (§1) CD2-F₁ mice, of the same sex weighing within 20+3g, are used for this test. Control and test animals are injected intraperitoneally with a suspension of 10⁶ viable P388/O tumour cells on day 0. In each test several dose levels which bracket the LD₂₀ for the compound are evaluated; each dose level group contains 6 animals. The test compounds are prepared either in physiologic saline containing 0.05% Tween 80 or distilled water containing 5% dextrose and are administered intraperitoneally on days, 1, 5, and 9 relative to tumor implant. Doses are on a mg/kg basis according to individual animals' body weights. the day of death for each animal is recorded, the median identified for each group and the ratios of median survival time for treated (T)/control (C) groups are calculated. The criterion for activity is T/C x 100 ≧120%.

P388/O tumour cells = assay: Lymphocytic Leukemia P388/0 Test; type: in vivo, CD2-F₁ mice; conditions: for 30-Day Survivors: at optimal dose, survivors per 6 animals of the dose group; for % T/C*: ratio of median survival time treated/control x 100 at optimal dose, excluding 30 day survivors, criterion for activity T/C x 100 ≧120%
Source text: Methods for evaluating the antitumor activity of these compounds are essentially those used in the Tumour Panel by the Development Therapeutics Program, Division of Cancer Treatment, National Cancer Institute, A. Goldin et al., Methods in Cancer Research, Vol. XVI, p.165, Academic Press (1979). Some modifications, in dose level and schedule have been made to increase the testing efficiency.
as §1

[2] = mice, intraperitoneally on days 1, 5 and 9

| SMILES | LD20 ([1]; mouse, in vivo, ip) | 30-Day Survivors (P388/O tumour cells) | % T/C* (P388/O tumour cells) | LD20 [1, 2] |
| --- | --- | --- | --- | --- |
| Cn1c2ccccc2c2sc3cc(CNC(C)(CO)CO)ccc3c21 [Example 16, 2-(((10-Methyl-10H-[1]benzothieno[3,2-b]indol-3-yl)methyl)amino)-2-methyl-1,3-propanediol hydrochloride] | 250 mg/kg | 0/6 | 170% |  |
| CC(CO)(CO)NCc1cc2oc3ccccc3c2c2ccoc12.Cl [Example 6E, 2-(((Benzofuro(5,4-b)benzofuran-4-yl)methyl)amino)-2-methyl-1,3-propanediol Hydrochloride] |  | 1/6 | 213% | 60 mg/kg |
| Cn1c2ccccc2c2ccc3sc(CNC(C)(CO)CO)cc3c21 [Example 3B, 2-Methyl-2-(((10-methyl-10H-thieno(3,2-a)carbazol-2-yl)methyl)amino)-1,3-propanediol methanesulfonate] | 375 mg/kg | 0/6 | 195% |  |
| Cl.Cn1cc(CNC(C)(CO)CO)c2c3sc4ccccc4c3ccc21 [Example 14B, 2-Methyl-2-(((3-methyl-3H-[1]benzothieno[2,3-e]indol-1-yl)methyl)amino)-1,3-propanediol Hydrochloride] |  | 0/6 | 215% | 150 mg/kg |
| CC(CO)(CO)NCc1ccc2oc3ccc4occc4c3c2c1.Cl [Example 5E, 2-(((Benzofuro(5,4-b)benzofuran-9-yl)methyl)amino)-2-methyl-1,3-propanediol Hydrochloride] |  | 0/6 | 117% | 175 mg/kg |
| CC(CO)(CO)NCc1c2ccoc2cc2c1oc1ccccc12.Cl [Example 9E, 2-(((Benzofuro(5,6-b)benzofuran-4-yl)methyl)amino)-2-methyl 1,3-propanediol Hydrochloride] |  | 0/6 | 192% | 75 mg/kg |
| CC(CO)(CO)NCc1ccc2c(c1)oc1ccc3occc3c12.Cl [Example 4M, 2(((Benzofuro(5,4-b)benzofuran-8-yl)methyl)amino)-2-methyl-1,3-propanediol Hydrochloride] |  | 0/6 | 117% | >450 mg/kg |
| Cl.Cn1cc(CNC(C)(CO)CO)c2ccc3oc4ccccc4c3c21 [Example 13E, 2-Methyl-2-(((1-methyl-1H-benzofuro[2,3-g]indole-3-yl)methyl)amino)-1,3-propanediol Hydrochloride] |  | 0/6 | 120% | 115 mg/kg |
| Cl.Cn1cc(CNC(C)(CO)CO)c2ccc3sc4ccccc4c3c21 [Example 11E, 2-Methyl-2-(((1-methyl-1H-[1]benzothieno[2,3]indol-3-yl)methyl)amino)-1,3-propanediol Hydrochloride] |  | 0/6 | 135% | 250 mg/kg |
| Cn1c2cccc(CNC(C)(CO)CO)c2c2sc3ccccc3c21 [Example 15D, 2-(((10-Methyl-10H-[1]benzothieno[3,2-b]indol-6-yl)methyl)amino)-2-methyl-1,3-propanediol Hydrochloride] | 225 mg/kg | 5/6 | 140% |  |
| CCn1c2ccccc2c2c3c(ccc21)c(CNC(C)(CO)CO)cn3C [Example 12C, 2-(((6-Ethyl-1,6-dihydro-1-methylpyrrolo[3,2-c]carbazol-3-yl)methyl)-amino)-2-methyl-1,3-propanediol Hydrochloride 0.6 H₂O] | 100 mg/kg | 0/6 | 113% |  |
| CC(CO)(CO)NCc1ccc2oc3cc4ccoc4cc3c2c1.Cl [Example 8H, 2(((Benzofuro(5,6-b)benzofuran-8-yl)methyl)amino)-2-methyl-1,3-propanediol Hydrochloride] |  | 0/6 | 200% | 300 mg/kg |
| Cl.Cn1c2ccccc2c2oc3c(CNC(C)(CO)CO)cccc3c21 [Example 1E, 2-Methyl-2-(((10-methyl-10H-benzofuro(3,2-b)indol-6-yl)methyl)amino)-1,3-propanediol Hydrochloride] |  | 0/6 | 210% | 150 mg/kg |
| Cn1c2ccccc2c2cc(CNC(C)(CO)CO)c3sccc3c21 [Example 2C, 2-Methyl-2-(((10-methyl-10H-thieno(3,2-a)carbazol-4-yl)methyl)amino)-1,3-propanediol methanesulfonate] | 375 mg/kg | 0/6 | 195% |  |
| CC(CO)(CO)NCc1cc2cc3oc4ccccc4c3cc2o1.Cl [Example 10B, 2-(((Benzofuro(5,6-b)benzofuran-2-yl)methyl)amino)-2-methyl-1,3-propanediol Hydrochloride] |  | 0/6 | 100% | >675 mg/kg |
| CC(CO)(CO)NCc1cc2c(ccc3oc4ccccc4c32)o1.Cl [Example 7B, 2-(((Benzofuro(5,4-b)benzofuran-2-yl)methyl)amino)-2-methyl-1,3-propanediol hydrochloride] |  | 0/6 | 138% | 175 mg/kg |
